PubChem BioAssay (NCI)
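These data come from cells grown in 96-well plates and exposed to compound for 48 hours at five concentrations. TGI: concentration producing complete growth inhibition.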

How the values were obtained:
Assay in all cases: NCI-60 cell line screen, 48 h
[1] = tested on: SK-OV-3 ovarian
[2] = tested on: KM12 colon
[3] = tested on: MDA-N
[4] = tested on: CCRF-CEM leukemia
[5] = tested on: SK-MEL-2 melanoma
[6] = tested on: IGROV1 ovarian
[7] = tested on: OVCAR-3 ovarian
[8] = tested on: M14 melanoma
[9] = tested on: HT29 colon
[10] = tested on: HCT-15 colon
[11] = tested on: K-562 leukemia
[12] = tested on: A549 NSCLC
[13] = tested on: NCI-H460 lung
[14] = tested on: T-47D breast
[15] = tested on: MOLT-4 leukemia
[16] = tested on: HOP-92 NSCLC
[17] = tested on: ACHN renal
[18] = tested on: HL-60(TB) leukemia
[19] = tested on: RPMI-8226 leukemia
[20] = tested on: SK-MEL-5 melanoma
[21] = tested on: NCI-H226 lung
[22] = tested on: MALME-3M melanoma
[23] = tested on: UACC-257 melanoma
[24] = tested on: OVCAR-4 ovarian
[25] = tested on: NCI-H522 lung
[26] = tested on: LOX IMVI melanoma
[27] = tested on: OVCAR-8 ovarian
[28] = tested on: HCC-2998 colon
[29] = tested on: HCT-116 colon
[30] = tested on: EKVX NSCLC
[31] = tested on: 786-0 renal
[32] = tested on: UO-31 renal
[33] = tested on: CAKI-1 renal
[34] = tested on: TK-10 renal
[35] = tested on: U251 CNS
[36] = tested on: UACC-62 melanoma
[37] = tested on: OVCAR-5 ovarian
[38] = tested on: SN12C renal
[39] = tested on: HOP-62 NSCLC
[40] = tested on: SNB-19 CNS
[41] = tested on: MCF7 breast
[42] = tested on: SF-268 CNS
[43] = tested on: BT-549 breast
[44] = tested on: NCI/ADR-RES ovarian
[45] = tested on: SR leukemia
[46] = tested on: MDA-MB-435
[47] = tested on: MDA-MB-231 breast
[48] = tested on: HS 578T breast
[49] = tested on: SF-295 CNS
[50] = tested on: A498 renal
[51] = tested on: DU-145 prostate
[52] = tested on: PC-3 prostate
[53] = tested on: RXF 393 renal
[54] = tested on: NCI-H23 lung
[55] = tested on: SF-539 CNS
[56] = tested on: SW-620 colon
[57] = tested on: SK-MEL-28 melanoma
[58] = tested on: COLO 205 colon
[59] = tested on: SNB-75 CNS

Measured: TGI

CCc1nn(CN2CCN(C)CC2)c(=S)n1/N=C\c1ccc(-c2ccc([N+](=O)[O-])cc2)o1
> 100 µM: [1] | [2] | [3] | [4] | [5] | [6] | [7] | [8] | [9] | [10] | [11] | [12] | [13] | [15] | [16] | [17] | [18] | [19] | [20] | [22] | [23] | [24] | [25] | [26] | [27] | [28] | [29] | [30] | [31] | [32] | [33] | [35] | [36] | [37] | [38] | [39] | [40] | [41] | [42] | [43] | [45] | [46] | [47] | [48] | [49] | [51] | [52] | [54]
82.5 µM: [53]
54.7 µM: [50]
86.4 µM: [21]
73.2 µM: [44]
71.3 µM: [34]
68.5 µM: [14]

O=C1Oc2ccccc2C(=O)/C1=C/N1C(=O)N/C(=C\c2ccccc2O)C1=O
> 85.5 µM: [14]
> 91 µM: [16]
> 100 µM: [1] | [55] | [2] | [3] | [4] | [5] | [6] | [7] | [8] | [9] | [10] | [11] | [12] | [13] | [15] | [17] | [18] | [19] | [20] | [21] | [22] | [23] | [24] | [25] | [26] | [27] | [28] | [56] | [29] | [30] | [31] | [32] | [33] | [34] | [35] | [36] | [57] | [37] | [38] | [39] | [40] | [41] | [42] | [43] | [44] | [45] | [58] | [46] | [47] | [48] | [49] | [50] | [59] | [51] | [52] | [53] | [54]
